Experimental data taken from patent US12365687B2 (Hoffmann-La Roche Inc., priority 2021, dated 2025).

Assays:
[1] = target: human GABAA α5β2γ1 receptor (Homo sapiens (Human), UniProt P31644+Q8N1C3); experiment: Radioligand binding assay for γ1-containing GABAA subtypes, [3H]RO7239181 competition (α5β2γ1)
[2] = target: human GABAA α2β2γ1 receptor (Homo sapiens (Human), UniProt P47869+Q8N1C3); experiment: Radioligand binding assay for γ1-containing GABAA subtypes, [3H]RO7239181 competition (α2β2γ1)
[3] = target: human GABAA α1β3γ2 receptor (Homo sapiens (Human), UniProt P14867+P18507); experiment: Radioligand binding assay for γ2-containing GABAA subtypes, [3H]Flumazenil competition (α1β3γ2); details: for γ2/γ1 Selectivity Ratio: Ki α1β3γ2 (nM)/Ki α2β2γ1 (nM); for LogSel: Log[Ki α1β3γ2 (nM)/Ki α2β2γ1 (nM)]
[4] = target: α2β2γ1 GABAA receptor subtype (Homo sapiens (Human), UniProt P47869+Q8N1C3); experiment: Two-electrode voltage clamp electrophysiology in Xenopus oocytes expressing GABAA receptors (modulation of GABA EC20 current); type: cell-based; details: for Efficacy (GABA)%: % modulation of GABA EC20 = 100*(Fold increase-1), α2β2γ1 oocytes, compound at approx. 30-fold Ki; for Fold increase h-GABA-A α2β2γ1 oocyte @ 30-fold Ki: Xenopus oocytes expressing α2β2γ1, compound at approx. 30-fold its Ki α2β2γ1, GABA EC20 current
In short: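 Two-electrode voltage clamp at −80 mV, room temperature, 3-5 days after mRNA injection into oocytes. GABA applied at EC20 for 1.5 min, twice, with compound during second application; at least 3 oocytes per concentration. Efficacy = extremum of point-by-point current ratio, expressed as 100×(fold increase−1).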

[5] = Ki h-GABAA α2β2γ1, [3H]RO7239181 competition binding, human GABAA α2β2γ1
[6] = Ki h-GABAA α2β2γ1, displacement of [3H]RO7239181, membranes of HEK293F cells expressing human receptors, means of two determinations

Row | SMILES | Ki [1] [nM] | Ki [2, 5] [nM] | Ki [2, 6] [nM] | Ki [3] [nM] | γ2/γ1 Selectivity Ratio [3] | LogSel [3] | Efficacy (GABA)% [4] [%] | Fold increase h-GABA-A α2β2γ1 oocyte @ 30-fold Ki [4]
1 | C[C@@H]1N=C(c2c(F)cccc2F)c2c(ccc(Cl)c2Cl)-n2nc(C(=O)N3CC[C@@H](F)C3)nc21 [Example 76, [(4S)-7,8-dichloro-6-(2,6-difluorophenyl)-4-methyl-4H-[1,2,4]triazolo[1,5-a][1,4]benzodiazepin-2-yl]-[(3R)-3-fluoropyrrolidin-1-yl]methanone] | 1.64 | 6.1 | 6.1 | 968 | 157.7 | 2.20 | 52 | 1.52
2 | C[C@@H]1N=C(c2ncccc2F)c2c(ccc(Cl)c2Cl)-n2nc(C(=O)N3CC4(CCCCO4)C3)nc21 [Example 101, [(4S)-7,8-dichloro-6-(3-fluoro-2-pyridyl)-4-methyl-4H-[1,2,4]triazolo[1,5-a][1,4]benzodiazepin-2-yl]-(5-oxa-2-azaspiro[3.5]nonan-2-yl)methanone] | 14.4 | 38 | 38 | 8680 | 228.3 | 2.36 | 97 | 1.97
3 | Cc1cnc2n1-c1ccc(C(F)(F)F)c(Cl)c1C(c1ncccc1F)=N[C@H]2C [Example 136, (4S)-7-chloro-6-(3-fluoro-2-pyridyl)-1,4-dimethyl-8-(trifluoromethyl)-4H-imidazo[1,2-a][1,4]benzodiazepine] | 6.22 | 37.5 | 37.5 | 6130 | 163.5 | 2.21 | 116 | 2.16
4 | C[C@@H]1N=C(c2c(F)cccc2F)c2c(ccc(C(F)(F)F)c2Cl)-n2nc(C(=O)NN3CCCC3)nc21 [Example 118, (4S)-7-chloro-6-(2,6-difluorophenyl)-4-methyl-N-pyrrolidin-1-yl-8-(trifluoromethyl)-4H-[1,2,4]triazolo[1,5-a][1,4]benzodiazepine-2-carboxamide] | 4.18 | 24.4 | 24.4 | 4450 | 182.7 | 2.26 | 120 | 2.20
5 | Cc1cnc2n1-c1ccc(C(F)(F)F)c(Cl)c1C(c1c(F)cccc1F)=N[C@H]2C [Example 115, (4S)-7-chloro-6-(2,6-difluorophenyl)-1,4-dimethyl-8-(trifluoromethyl)-4H-imidazo[1,2-a][1,4]benzodiazepine] | 2.63 | 12.3 | 12.3 | 827 | 67.4 | 1.83 | 49 | 1.49
6 | C[C@@H]1N=C(c2c(F)cccc2F)c2c(ccc(Cl)c2Cl)-n2ncnc21 [Example 15, (4S)-7,8-dichloro-6-(2,6-difluorophenyl)-4-methyl-4H-[1,2,4]triazolo[1,5-a][1,4]benzodiazepine] | 0.4 | 6 | 6 | 278 | 46.3 | 1.67 | 62 | 1.62
7 | CO[C@H]1CCN(C(=O)c2nc3n(n2)-c2ccc(Cl)c(Cl)c2C(c2ncccc2F)=N[C@H]3C)C1 [Example 89, [(4S)-7,8-dichloro-6-(3-fluoro-2-pyridyl)-4-methyl-4H-[1,2,4]triazolo[1,5-a][1,4]benzodiazepin-2-yl]-[(3S)-3-methoxypyrrolidin-1-yl]methanone] | 6.15 | 69.7 | 69.7 | 6350 | 91.2 | 1.96 | 113 | 2.13
8 | Cc1nc2n(n1)-c1ccc(Cl)c(Cl)c1C(c1ncccc1F)=N[C@H]2C [Example 84, (4S)-7,8-dichloro-6-(3-fluoro-2-pyridyl)-2,4-dimethyl-4H-[1,2,4]triazolo[1,5-a][1,4]benzodiazepine] | 2.8 | 28.4 | 28.4 | 977 | 34.4 | 1.54 | 175 | 2.75
9 | C[C@@H]1N=C(c2c(F)cccc2F)c2c(ccc(Cl)c2Cl)-n2nc(C(=O)N3CC4(CCCO4)C3)nc21 [Example 108, [(4S)-7,8-dichloro-6-(2,6-difluorophenyl)-4-methyl-4H-[1,2,4]triazolo[1,5-a][1,4]benzodiazepin-2-yl]-(5-oxa-2-azaspiro[3.4]octan-2-yl)methanone] | 2.59 | 3.9 | 3.92 | 688 | 175.8 | 2.24 | 46 | 1.46
10 | C[C@@H]1N=C(c2ncccc2F)c2c(ccc(Cl)c2Cl)-n2nc(C(=O)N3CC4(CCOCC4)C3)nc21 [Example 95, 7-oxa-2-azaspiro[3.5]nonan-2-yl-[(4S)-7,8-dichloro-6-(3-fluoro-2-pyridyl)-4-methyl-4H-[1,2,4]triazolo[1,5-a][1,4]benzodiazepin-2-yl]methanone] | 20.2 | 47.6 | 47.6 | 9440 | 198.4 | 2.30 | 126 | 2.26
11 | Fc1cccc(F)c1C1=NCc2nc(C(F)F)nn2-c2ccc(Cl)c(Cl)c21 [Example 33, 7,8-dichloro-2-(difluoromethyl)-6-(2,6-difluorophenyl)-4H-[1,2,4]triazolo[1,5-a][1,4]benzodiazepine] | 0.69 | 10.8 | 10.8 | 659 | 61.2 | 1.79 | 56 | 1.56
12 | CNS(=O)(=O)c1nc2n(n1)-c1ccc(Cl)c(Cl)c1C(c1c(F)cccc1F)=N[C@H]2C [Example 73, (4S)-7,8-dichloro-6-(2,6-difluorophenyl)-N,4-dimethyl-4H-[1,2,4]triazolo[1,5-a][1,4]benzodiazepine-2-sulfonamide] | 2.97 | 49.1 | 49.1 | 2170 | 44.1 | 1.64 | 58 | 1.58
13 | C[C@@H]1N=C(c2ncccc2F)c2c(ccc(Cl)c2Cl)-n2nc(C(=O)N3CC[C@H](F)C3)nc21 [Example 79, [(4S)-7,8-dichloro-6-(3-fluoro-2-pyridyl)-4-methyl-4H-[1,2,4]triazolo[1,5-a][1,4]benzodiazepin-2-yl]-[(3S)-3-fluoropyrrolidin-1-yl]methanone] | 7.8 | 48.4 | 48.4 | 3720 | 76.8 | 1.89 | 129 | 2.29
14 | C[C@@H]1N=C(c2c(F)cccc2F)c2c(ccc(Cl)c2Cl)-n2nc(CO)nc21 [Example 13, [(4S)-7,8-dichloro-6-(2,6-difluorophenyl)-4-methyl-4H-[1,2,4]triazolo[1,5-a][1,4]benzodiazepin-2-yl]methanol] | 0.6 | 2.6 | 2.58 | 368 | 142.7 | 2.15 | 59 | 1.59
15 | Cc1c(C(=O)NC[C@@H](C)O)nc2n1-c1ccc(C(F)(F)F)c(Cl)c1C(c1ncccc1F)=N[C@H]2C [Example 162, (4S)-7-chloro-6-(3-fluoro-2-pyridyl)-1,4-dimethyl-N-[(2R)-2-hydroxypropyl]-8-(trifluoromethyl)-4H-imidazo[1,2-a][1,4]benzodiazepine-2-carboxamide] | 13.6 | 54.4 | 55.7 | 11700 | 210.1 | 2.32 | 148 | 2.48
16 | C[C@H](O)CNC(=O)c1nc2n(n1)-c1ccc(Cl)c(Cl)c1C(c1c(F)cccc1F)=N[C@H]2C [Example 63, (4S)-7,8-dichloro-6-(2,6-difluorophenyl)-4-methyl-N-[(2S)-2-hydroxypropyl]-4H-[1,2,4]triazolo[1,5-a][1,4]benzodiazepine-2-carboxamide] | 1.33 | 4.2 | 4.25 | 606 | 142.6 | 2.15 | 79 | 1.79
